In PubChem BioAssay AID248 (DTP/NCI, 2004):
“And” between values parts separate entries of the source, which are not always exact repeats. Identical values can stand only once. Toxic doses and inconclusive results are not listed. No stated cut-off is given here; in the data, active means T/C of 150% or more; inactive means T/C below 125%.

System: L1210 leukemia ip in BDF1 mice, survival T/C
Assay: NCI In Vivo Anticancer Drug Screen. Data for tumor model L1210 Leukemia (intraperitoneal) in B6D2F1 (BDF1) mice
Details: endpoint: mean survival time, higher = longer survival
Procedure, shortened: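 Value reflects the ratio of survival in compound-treated mice to survival in vehicle-treated controls, with both groups carrying the same transplanted tumor.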

[1] = dose: 100.0 mg/kg/injection, schedule: Q01DX009 (ip), vehicle: Klucel (hydroxypropylcellulose) (HPC)
[2] = dose: 100.0 mg/kg/injection, schedule: Q04DX003 (ip), vehicle: Klucel (hydroxypropylcellulose) (HPC)
[3] = dose: 200.0 mg/kg/injection, schedule: Q01DX009 (ip), vehicle: Klucel (hydroxypropylcellulose) (HPC)
[4] = dose: 200.0 mg/kg/injection, schedule: Q04DX003 (ip), vehicle: Klucel (hydroxypropylcellulose) (HPC)
[5] = dose: 400.0 mg/kg/injection, schedule: Q04DX003 (ip), vehicle: Klucel (hydroxypropylcellulose) (HPC)
[6] = dose: 50.0 mg/kg/injection, schedule: Q01DX009 (ip), vehicle: saline
[7] = dose: 400.0 mg/kg/injection, schedule: Q01DX009 (ip), vehicle: Klucel (hydroxypropylcellulose) (HPC)
[8] = dose: 100.0 mg/kg/injection, schedule: Q04DX003 (ip), vehicle: saline with Tween-80
[9] = dose: 200.0 mg/kg/injection, schedule: Q04DX003 (ip), vehicle: saline with Tween-80
[10] = dose: 400.0 mg/kg/injection, schedule: Q04DX003 (ip), vehicle: saline with Tween-80
[11] = dose: 50.0 mg/kg/injection, schedule: Q01DX001 (ip), vehicle: carboxymethylcellulose (CMC)
[12] = dose: 100.0 mg/kg/injection, schedule: Q01DX001 (ip), vehicle: carboxymethylcellulose (CMC)
[13] = dose: 100.0 mg/kg/injection, schedule: Q01DX001 (ip), vehicle: saline
[14] = dose: 100.0 mg/kg/injection, schedule: Q01DX009 (ip), vehicle: saline
[15] = dose: 200.0 mg/kg/injection, schedule: Q01DX001 (ip), vehicle: saline
[16] = dose: 200.0 mg/kg/injection, schedule: Q01DX009 (ip), vehicle: saline
[17] = dose: 400.0 mg/kg/injection, schedule: Q01DX001 (ip), vehicle: saline
[18] = dose: 100.0 mg/kg/injection, schedule: Q01DX009 (ip), vehicle: saline with Tween-80
[19] = dose: 200.0 mg/kg/injection, schedule: Q01DX009 (ip), vehicle: saline with Tween-80
[20] = dose: 400.0 mg/kg/injection, schedule: Q01DX009 (ip), vehicle: saline with Tween-80
[21] = dose: 200.0 mg/kg/injection, schedule: Q01DX001 (ip), vehicle: carboxymethylcellulose (CMC)

Measured: T/C

Cc1ccc(C)c(NC(=O)Oc2ccc(C(=O)OCc3ccccc3)cc2)c1
inactive: dose: 25.0 mg/kg/injection, schedule: Q01DX009 (ip), vehicle: Klucel (hydroxypropylcellulose) (HPC) 100 % of control | dose: 50.0 mg/kg/injection, schedule: Q01DX009 (ip), vehicle: Klucel (hydroxypropylcellulose) (HPC) 88 % of control | [1] 93 % of control and 104 % of control | [2] 107 % of control | [3] 95 % of control | [4] 98 % of control | [5] 101 % of control

CN(C)C1CC1c1ccccc1 (configuration not stated)
inactive: dose: 6.25 mg/kg/injection, schedule: Q01DX009 (ip), vehicle: saline 106 % of control | dose: 12.5 mg/kg/injection, schedule: Q01DX009 (ip), vehicle: saline 95 % of control | dose: 25.0 mg/kg/injection, schedule: Q01DX009 (ip), vehicle: saline 95 % of control | dose: 25.0 mg/kg/injection, schedule: Q04DX003 (ip), vehicle: saline 100 % of control | [6] 106 % of control | dose: 50.0 mg/kg/injection, schedule: Q04DX003 (ip), vehicle: saline 100 % of control | dose: 100.0 mg/kg/injection, schedule: Q04DX003 (ip), vehicle: saline 100 % of control

CSCCNC(=O)C(=O)NCCSC
inactive: dose: 100.0 mg/kg/injection, schedule: Q04DX002 (ip), vehicle: other 95 % of control | dose: 200.0 mg/kg/injection, schedule: Q04DX002 (ip), vehicle: other 88 % of control | dose: 400.0 mg/kg/injection, schedule: Q04DX002 (ip), vehicle: other 98 % of control

CC(=O)OC1CCCCCCC1
inactive: [1] 97 % of control | [2] 95 % of control | [3] 100 % of control | [4] 92 % of control | [7] 94 % of control | [5] 92 % of control

CC(C)(C)CC(C)(C)c1ccc(OCCOc2ccccc2N)cc1
inactive: [8] 94 % of control | [9] 95 % of control | [10] 97 % of control

CC(=O)Oc1c(C(C)(C)C)cc([N+](=O)[O-])c(C)c1[N+](=O)[O-]
inactive: dose: 25.0 mg/kg/injection, schedule: Q04DX002 (ip), vehicle: Klucel (hydroxypropylcellulose) (HPC) 95 % of control | dose: 50.0 mg/kg/injection, schedule: Q04DX002 (ip), vehicle: Klucel (hydroxypropylcellulose) (HPC) 97 % of control

C=CCC(O)C=C (configuration not stated)
inactive: [11] 89 % of control | [12] 92 % of control

O=C(CC(=O)Nc1ccccc1)Cc1ccccc1
inactive: [13] 102 % of control | [14] 93 % of control | [15] 88 % of control | [16] 90 % of control | [17] 93 % of control | dose: 400.0 mg/kg/injection, schedule: Q01DX009 (ip), vehicle: saline 93 % of control

O=C(O)C(Cc1ccc(O)c([N+](=O)[O-])c1)N1C(=O)c2ccccc2C1=O (configuration not stated)
inactive: [13] 101 % of control | [15] 95 % of control | [17] 95 % of control

Cc1c(Cl)cccc1NC(=O)c1ccc(Cl)cc1Cl
inactive: [1] 92 % of control | [2] 92 % of control | [3] 94 % of control | [4] 95 % of control | [7] 91 % of control | [5] 93 % of control

O=C(Nc1ccc(F)c([N+](=O)[O-])c1)N1CCN(c2ccccc2)CC1
inactive: [1] 101 % of control | [3] 98 % of control | [7] 107 % of control

O=C(O)CCC(=O)c1cc2ccccc2s1
inactive: [2] 92 % of control | [4] 99 % of control | [5] 99 % of control

CCCCSc1ncnc2nc[nH]c12
inactive: dose: 75.0 mg/kg/injection, schedule: Q01DX001 (ip), vehicle: other 103 % of control | dose: 150.0 mg/kg/injection, schedule: Q01DX001 (ip), vehicle: other 95 % of control | dose: 300.0 mg/kg/injection, schedule: Q01DX001 (ip), vehicle: other 106 % of control

Cc1nc(N)[nH]c(=O)c1CCCS
inactive: [13] 104 % of control | [15] 101 % of control | [17] 102 % of control

Cn1c[n+](-c2ccccc2)c([S-])n1
inactive: [13] 101 % of control | [15] 101 % of control | [17] 100 % of control

CNC(=O)NCC1OC(OC2(CO)OC(CNC(=O)NC)C(O)C2O)C(O)C(O)C1O (configuration not stated)
inactive: [6] 91 % of control | [14] 98 % of control | [16] 98 % of control

COc1ccc(OC)c(C2=CCCCCC2)c1OC
inactive: [18] 95 % of control | [19] 106 % of control | [20] 100 % of control

CNc1nnnn1-c1ccccc1
inactive: dose: 100.0 mg/kg/injection, schedule: Q01DX001 (ip), vehicle: acetone 95 % of control | dose: 200.0 mg/kg/injection, schedule: Q01DX001 (ip), vehicle: acetone 100 % of control | dose: 400.0 mg/kg/injection, schedule: Q01DX001 (ip), vehicle: acetone 95 % of control

CC(C)(C)C[CH2][Hg][Cl]
inactive: dose: 6.25 mg/kg/injection, schedule: Q04DX003 (ip), vehicle: Klucel (hydroxypropylcellulose) (HPC) 92 % of control | dose: 12.5 mg/kg/injection, schedule: Q04DX003 (ip), vehicle: Klucel (hydroxypropylcellulose) (HPC) 94 % of control

O=C(Nc1nc2ccccc2[nH]1)c1ccc(C(=O)Nc2nc3ccccc3[nH]2)cc1
inactive: dose: 15.0 mg/kg/injection, schedule: Q01DX Z (ip), vehicle: other 100 % of control | dose: 30.0 mg/kg/injection, schedule: Q01DX Z (ip), vehicle: other 100 % of control | dose: 60.0 mg/kg/injection, schedule: Q01DX Z (ip), vehicle: other 100 % of control | dose: 120.0 mg/kg/injection, schedule: Q01DX Z (ip), vehicle: other 97 % of control | dose: 180.0 mg/kg/injection, schedule: Q01DX Z (ip), vehicle: carboxymethylcellulose (CMC) 102 % of control | dose: 270.0 mg/kg/injection, schedule: Q01DX Z (ip), vehicle: carboxymethylcellulose (CMC) 96 % of control

Nn1nnc(-c2ccccc2)c1-c1ccccc1
inactive: [12] 100 % of control | [21] 100 % of control

COc1ccc(C(=O)Nc2ccccc2)cc1[N+](=O)[O-]
inactive: [1] 96 % of control | [18] 101 % of control | [8] 101 % of control | [3] 98 % of control | [19] 94 % of control | [9] 97 % of control | [7] 98 % of control | [20] 86 % of control | [10] 101 % of control

COc1cc(O)c(OC(C)=O)cc1OC
inactive: dose: 100.0 mg/kg/injection, schedule: Q01DX001 (ip), vehicle: gum acacia 97 % of control | dose: 200.0 mg/kg/injection, schedule: Q01DX001 (ip), vehicle: gum acacia 97 % of control | dose: 400.0 mg/kg/injection, schedule: Q01DX001 (ip), vehicle: gum acacia 117 % of control

ClSSc1c2ccccc2cc2ccccc12
inactive: dose: 75.0 mg/kg/injection, schedule: Q01DX001 (ip), vehicle: carboxymethylcellulose (CMC) 91 % of control | dose: 150.0 mg/kg/injection, schedule: Q01DX001 (ip), vehicle: carboxymethylcellulose (CMC) 92 % of control | dose: 300.0 mg/kg/injection, schedule: Q01DX001 (ip), vehicle: carboxymethylcellulose (CMC) 88 % of control

O=S1(=O)CC(Cl)C1
inactive: [11] 107 % of control | [12] 89 % of control | [21] 97 % of control

O=C(CCCCC(=O)N=C(c1ccccc1)c1ccccc1)N=C(c1ccccc1)c1ccccc1
inactive: dose: 222.0 mg/kg/injection, schedule: Q01DX Z (ip), vehicle: methylcellulose (MC) 93 % of control | dose: 333.0 mg/kg/injection, schedule: Q01DX Z (ip), vehicle: methylcellulose (MC) 98 % of control | dose: 500.0 mg/kg/injection, schedule: Q01DX Z (ip), vehicle: methylcellulose (MC) 97 % of control

Cc1cc([N+](=O)[O-])c(P(=O)(O)O)cc1Cl
inactive: dose: 75.0 mg/kg/injection, schedule: Q01DX001 (ip), vehicle: saline 93 % of control | dose: 150.0 mg/kg/injection, schedule: Q01DX001 (ip), vehicle: saline 91 % of control | dose: 300.0 mg/kg/injection, schedule: Q01DX001 (ip), vehicle: saline 96 % of control

C[n+]1cc(I)cc2ccccc21
inactive: [11] 97 % of control | [12] 103 % of control | [21] 103 % of control | dose: 400.0 mg/kg/injection, schedule: Q01DX001 (ip), vehicle: carboxymethylcellulose (CMC) 101 % of control
